According to patent US9504729B2, “Antiangiogenic small molecules and methods of use” (The United States of America, as represented by the …, priority 2009, dated 2016):

System: angiogenesis genes in dermal microvascular endothelial cells
Test: Real time RT-PCR of angiogenesis gene expression during endothelial tube formation
Type: cell-based
Conditions: 1 μM SM, 24 hours

In the case of `COc1cc2cc(c1Cl)N(C)C(=O)CC(OC(=O)C(C)C)C1(C)OC1C(C)C1CC(O)(NC(=O)O1)C(OC)/C=C/C=C(\C)C2` (stereo not drawn) [compound 292222], the “Log2 fold-change of gene expression: Kifc1” value is reported as 0.5, the “Log2 fold-change of gene expression: LAMAS5” value is reported as −0.4 and the “Log2 fold-change of gene expression: LECT1” value is reported as 1.4. The “Log2 fold-change of gene expression: LEP” value was −0.6, the “Log2 fold-change of gene expression: Lasts2” value was 0.1 and the “Log2 fold-change of gene expression: Lrrk1” value was −0.1. For the same compound, the “Log2 fold-change of gene expression: MDK” value was 0.8, the “Log2 fold-change of gene expression: MMP2” value was 2.8 and the “Log2 fold-change of gene expression: MMP9” value was 3.3. The “Log2 fold-change of gene expression: MMP11” value was 0.1, the “Log2 fold-change of gene expression: MRC2” value was 0.6 and the “Log2 fold-change of gene expression: Mmm2” value was −1.0. The “Log2 fold-change of gene expression: Myo1b” value was −1.5, the “Log2 fold-change of gene expression: NID1” value was −2.5 and the “Log2 fold-change of gene expression: NM023516” value was 0.4. For the same compound, the “Log2 fold-change of gene expression: NRP1” value was 0.8, the “Log2 fold-change of gene expression: NRP2” value was 1.0 and the “Log2 fold-change of gene expression: Notch4” value was −0.4. For the same compound, the “Log2 fold-change of gene expression: Npr3” value was 0.9, the “Log2 fold-change of gene expression: PALD” value was 1.8 and the “Log2 fold-change of gene expression: PDCD2” value was 0.2. For the same compound, the “Log2 fold-change of gene expression: PDGFA” value was 1.6, the “Log2 fold-change of gene expression: PECAM1” value was −0.7 and the “Log2 fold-change of gene expression: PGF” value was 0.6. For the same compound, the “Log2 fold-change of gene expression: PLAU” value was 2.7, the “Log2 fold-change of gene expression: PLG” value was −0.7 and the “Log2 fold-change of gene expression: PNMT” value was 0.1. For the same compound, the “Log2 fold-change of gene expression: PROK2” value was 1.9, the “Log2 fold-change of gene expression: PTGS1” value was 2.0 and the “Log2 fold-change of gene expression: PTPRCAP” value was 0.1. For the same compound, the “Log2 fold-change of gene expression: Pltp” value was 0.4, the “Log2 fold-change of gene expression: Ptprb” value was 0.3 and the “Log2 fold-change of gene expression: Ptprm” value was −0.1. The “Log2 fold-change of gene expression: RAMP2” value was −0.6, the “Log2 fold-change of gene expression: RASD2” value was 0.3 and the “Log2 fold-change of gene expression: Rasip1” value was −0.3. The “Log2 fold-change of gene expression: S1PR1” value was −0.3, the “Log2 fold-change of gene expression: SERPINF1” value was 2.3 and the “Log2 fold-change of gene expression: SPHK1” value was 2.0. The “Log2 fold-change of gene expression: STAB1” value was 0.2, the “Log2 fold-change of gene expression: Sdc4” value was 0.7 and the “Log2 fold-change of gene expression: Sdpr” value was −4.9. The “Log2 fold-change of gene expression: Slc43a3” value was 1.0, the “Log2 fold-change of gene expression: Slco2a1” value was −5.3 and the “Log2 fold-change of gene expression: TEK” value was 2.0. The “Log2 fold-change of gene expression: TGFA” value was −3.4, the “Log2 fold-change of gene expression: TGFB1” value was 1.1 and the “Log2 fold-change of gene expression: TGFB2” value was 1.9. The “Log2 fold-change of gene expression: TGFBR1” value was 1.8, the “Log2 fold-change of gene expression: THBS1” value was 1.1 and the “Log2 fold-change of gene expression: THBS2” value was 1.9. For the same compound, the “Log2 fold-change of gene expression: THY1” value was −8.0, the “Log2 fold-change of gene expression: TIMP1” value was 1.6 and the “Log2 fold-change of gene expression: TIMP2” value was 1.1. The “Log2 fold-change of gene expression: TIMP3” value was −0.4, the “Log2 fold-change of gene expression: TNF” value was 1.0 and the “Log2 fold-change of gene expression: TNS1” value was −0.3. For the same compound, the “Log2 fold-change of gene expression: TNS3” value was 0.5, the “Log2 fold-change of gene expression: TRA2B” value was −0.6 and the “Log2 fold-change of gene expression: TYMP” value was −0.1. For the same compound, the “Log2 fold-change of gene expression: VEGFA” value was 3.2, the “Log2 fold-change of gene expression: VEGFC” value was 2.7 and the “Log2 fold-change of gene expression: VGLL4” value was −0.8. For the same compound, the “Log2 fold-change of gene expression: Vwf” value was −3.3, the “Log2 fold-change of gene expression: copa” value was 0.2 and the “Log2 fold-change of gene expression: itbp4” value was 0.1. The “Log2 fold-change of gene expression: ralb” value was −0.4, the “Log2 fold-change of gene expression: stard9” value was 0.8 and the “Log2 fold-change of gene expression: B2M” value (1st listing (r49)) was −0.4. For the same compound, the “Log2 fold-change of gene expression: HPRT1” value (shortened to “Log2 fold-change … HPRT1”) (1st listing (r50)) was 0.3, the “Log2 fold-change of gene expression: RPL13A” value (shortened to “Log2 fold-change … RPL13A”) (1st listing (r51)) was 0.7 and the “Log2 fold-change of gene expression: GADPH” value (“Log2 fold-change … GADPH” below) (1st listing (r52)) was −0.1. The “Log2 fold-change of gene expression: ACTB” value (“Log2 fold-change … ACTB” for short) (1st listing (r53)) was −0.8, the “Log2 fold-change of gene expression: PLXDC1” value (1st listing (r74)) was −0.1 and the “Log2 fold-change of gene expression: TNFAIP2” value (1st listing (r91)) was 0.6. For the same compound, the “Log2 fold-change of gene expression: Robo4” value (1st listing (r95)) was 1.1, the “Log2 fold-change of gene expression: 151516” value (1st listing (r134)) was 0.7 and the “Log2 fold-change of gene expression: TNFAIP2” value (2nd listing (r92)) was 0.2. For the same compound, the “Log2 fold-change of gene expression: B2M” value (2nd listing (r97)) was 1.3, the “Log2 fold-change … HPRT1” value (2nd listing (r98)) was 1.4 and the “Log2 fold-change … RPL13A” value (2nd listing (r99)) was 1.7. The “Log2 fold-change … GADPH” value (2nd listing (r100)) was 1.4, the “Log2 fold-change … ACTB” value (2nd listing (r101)) was −6.3 and the “Log2 fold-change of gene expression: PLXDC1” value (2nd listing (r104)) was 0.3. The “Log2 fold-change of gene expression: 151516” value (2nd listing (r139)) was 0.7, the “Log2 fold-change of gene expression: Robo4” value (2nd listing (r188)) was 0.0 and the “Log2 fold-change of gene expression: B2M” value (3rd listing (r145)) was 0.0. For the same compound, the “Log2 fold-change … HPRT1” value (3rd listing (r146)) was 0.2, the “Log2 fold-change … RPL13A” value (3rd listing (r147)) was 0.3 and the “Log2 fold-change … GADPH” value (3rd listing (r148)) was −0.1. The “Log2 fold-change … ACTB” value (3rd listing (r149)) was −0.9, the “Log2 fold-change of gene expression: B2M” value (4th listing (r193)) was 0.6 and the “Log2 fold-change … HPRT1” value (4th listing (r194)) was 0.4. The “Log2 fold-change … RPL13A” value (4th listing (r195)) was 1.2, the “Log2 fold-change … GADPH” value (4th listing (r196)) was −0.2 and the “Log2 fold-change … ACTB” value (4th listing (r197)) was −0.6.
